Consider one substance from patent publication US20090156648A1, “Preparations containing pyridoxine and alpha-hydroxyisocaproic acid (HICA)” (IOVATE T. & P. INC., priority 2007, published 2009).

This data set in a line: hygroscopicity and storage stability of the salt as described. Format: physicochemical. The conditions noted are these: crystalline powder.

Consider pyridoxine α-hydroxyisocaproate, for which the hygroscopic nature result is reported as “non-hygroscopic” and the stability in storage result is on record as “stable in storage”.
